Patent publication US20100113430A1, “THIOXANTHENE DERIVATES USEFUL TO TREAT INFECTIOUS DISEASES” (BKG PHARMA APS, priority 2007, published 2010)
Values after ≈ are worked out from the molar mass of the structure shown.

Tests used:
[1] = tested on: Enterococcus faecalis BG VSE-92; experiment: Mouse peritonitis/sepsis model; type: in vivo, NMRI mice; conditions: 25 mg/kg s.c.
Procedure: A clinical multiresistant isolate of Enterococcus faecalis BG VSE-92 from human urine was used.
Female NMRI mice (age, approximately 6 to 8 weeks; weight, 30±2 g) were used for the mouse […] peritonitis model (as described below).
Bacterial suspensions were prepared from fresh overnight cultures (made from frozen stock cultures) on 5% blood agar plates as described above. The inoculum for the mouse peritonitis model was prepared immediately before use and was adjusted at 540 nm of giving a density of approximately 10^7 CFU/ml. The size of the inoculum was determined by viability counting on 5% blood agar.
The mice were injected intraperitoneally with 0.5 ml of the enterococcal suspension, resulting in bacteremia within 1 h of inoculation. Antibiotic therapy was initiated 1 h after inoculation. N-dealkyl-trans-clopenthixol was administered subcutaneously in the neck region in a volume of 0.7 ml per dose. Ten mice were in each treatment group. Inoculated untreated control mice were included in all trials. (Method reference: Erlandsdottir et al; Antimicrob Agents Chemother. 2001 April; 45(4):1078-85)
The effects of the various treatment regimens were determined during 6 h of treatment by evaluation of bacterial counts in the […]. After the mice were killed, blood were immediately diluted 10-fold in saline, from which 20 μl was plated onto 5% blood agar plates in spots, with subsequent counting of colonies after incubation overnight at 35° C. The lowest detection levels for bacterial counts in blood were 50 CFU/ml.
The bactericidal efficacies of the treatment regimens in the mouse models were calculated by subtracting the results for each treated mouse from the mean results for control mice at the end of therapy (6 h). A P value of <0.05 was considered significant. All statistical comparisons were two-tailed.

[2] = tested on: multiresistant clinical isolate of Staphylococcus epidermidis; experiment: MIC, microdilution broth method (NCCLS), Staphylococcus epidermidis; type: cell-based
Procedure: (§1) Cell growth was tested using the Minimal Inhibitory Concentration (MIC) susceptibility tests by use of the microdilution broth method in accordance to the NCCLS Guidelines (NCCLS Guidelines, Methods for Dilution Antimicrobial Susceptibility Tests for Bacteria That Grow Aerobically; Approved Standard, Sixth Edition, Volume 23; Number 2). The minimum inhibitory concentration (MIC), is defined ad the lowest concentration of drug which inhibits growth of the test organism, in the sense that no visible growth is detected (total inhibition of growth). In example 2 MIC of the compounds used on fungal microorganisms was determined from the IC90 measurements according to NCCLS Guidelines.
A log phase culture of bacteria was diluted with fresh pre-warmed Mueller-Hinton medium and adjusted to a defined OD at 600 nm in order to give a final concentration of 1×10^4-5 bacteria/ml medium. The bacterial culture was transferred to microtiter-plates and culture was added to each well. […] Trays were incubated at 37° C. by shaking in a robot analyzer, PowerWavex, software KC^4′ Kebo.Lab, Copenhagen, for 16 h and optical densities were measured at 600 nm during the incubation time in order to record growth curves. Wells containing bacterial culture without drug were used as controls to ensure correct inoculum size and bacterial growth during the incubation. Cultures were tested in order to detect contaminations. Each experiment was repeated in triplicate.
A clinically relevant isolate of Staphylococcus epidermidis was cultured and assayed as described above for susceptibility towards the compounds listed in table 1.

[3] = tested on: Enterococcus faecalis resistant clinical isolates; experiment: MIC/IC90, resistant clinical isolates of Enterococcus faecalis; type: cell-based
Procedure: as §1
(§2) A log phase culture of bacteria was diluted with fresh pre-warmed Mueller-Hinton medium and adjusted to a defined OD at 600 nm in order to give a final concentration of 1×10^4-5 bacteria/ml medium. The bacterial culture was transferred to microtiter-plates and culture was added to each well. Drug was added to the bacterial culture in the wells as two-fold dilution series of drug in order to give final concentrations ranging from 0.03 to 128 μg/ml. Trays were incubated at 37° C. by shaking in a robot analyzer, PowerWavex, software KC^4′ Kebo.Lab, Copenhagen, for 16 h and optical densities were measured at 600 nm during the incubation time in order to record growth curves. Wells containing bacterial culture without drug were used as controls to ensure correct inoculum size and bacterial growth during the incubation. Cultures were tested in order to detect contaminations. Each experiment was repeated in triplicate. MIC values represent the mean values of two separate triplicate experiments. Intra- and interassay variation was <5%.
(§3) Inhibition 90 (IC90) is defined as: OD responding a 90% growth inhibition.
Clinically relevant isolates were cultured and assayed as described above.

[4] = tested on: Fluconazole Resistant Candida albicans clinical isolate; experiment: MIC (80% growth inhibition), broth microdilution NCCLS M27-A, fluconazole resistant Candida albicans; type: cell-based; conditions: fluconazole resistant Candida albicans; MIC = 80% growth inhibition
Procedure: The antimicrobial effect of N-dealkyl-trans-clopenthixol and N-dealkyl-trans-flupenthixol was studied by exposing cells to 0-8 μg/ml of the compounds in two-fold dilutions. Each experiment was repeated in triple duplicate. MIC values represent the mean values of two separate experiments.
Clinical Isolate of A Fluconazole Resistant Candida albicans from a Patient with Candidemia.
The isolates were subcultured for 24 h on Sabouraud glucose agar before susceptibility testing. Broth microdilution tests were performed according to NCCLS document M27-A (Ref: National Commitee for Clinical Laboratory Standards. (1997). Reference Method for Broth Dilution Antifungal Susceptibility Testing of Yeasts: Approved Standard M27-A. NCCLS, Wayne, Pa.)
Microtitre plates were read spectrophotometrically at 530 nm, after mixing the wells by pipetting to resuspend yeast sediments. The MIC was defined as the lowest drug dilution resulting in 80% growth inhibition.

Streptococci = experiment: MIC/IC90 broad spectrum, Streptococci; type: cell-based; conditions: 30 strains, 20 resistant
Procedure: as §1, §2, §3
A broad spectrum of bacteria were cultured and assayed as described above for susceptibility towards N-dealkyl-clopenthixol.

[5] = 6 hours after inoculation, infected mice
[6] = Enterococcus faecalis 10, BLR, CR

For `Clc1ccc2c(c1)/C(=C/CCN1CCNCC1)c1ccccc1S2` [N-dealkyl-trans-clopenthixol, trans-1-(3-(2-chloro-thioxanthen-9-ylidene)propyl)piperazine], the “Cfu/ml blood (median)” value [1, 5] was 1.55 × 10^4 Cfu/ml blood, the “Log (cfu/ml blood) (median)” value [1, 5] was 4.19 Log (cfu/ml blood) and the “decrease of number of bacteria per ml of blood” value ([1]; p<0.05) was “approx. 2 log”. It also gave an MIC ([2]; Staphylococcus epidermidis multiresistant isolate, Example 6, isomers alone and 1:1 mixture) of 0.5 µg/mL (≈ 1.4 µM), an MIC ([2]; multiresistant clinical isolate of Staphylococcus epidermidis, Example 1) of 0.5 µg/mL (≈ 1.4 µM) and an IC90 ([3]; Enterococcus faecalis 1, VanA) of 0.6 µg/mL (≈ 1.68 µM). It also gave an MIC ([3]; Enterococcus faecalis 1, VanA) of 1 µg/mL (≈ 2.8 µM), an IC90 ([3]; Enterococcus faecalis 2, VanA) of 0.6 µg/mL (≈ 1.68 µM) and an MIC ([3]; Enterococcus faecalis 2, VanA) of 1 µg/mL (≈ 2.8 µM). The MIC ([3]; Enterococcus faecalis 3, VanA) was 1 µg/mL (≈ 2.8 µM), the IC90 ([3]; Enterococcus faecalis 4, VanB) was 0.6 µg/mL (≈ 1.68 µM) and the MIC ([3]; Enterococcus faecalis 4, VanB) was 1 µg/mL (≈ 2.8 µM). It also gave an IC90 ([3]; Enterococcus faecalis 5, Van B) of 1 µg/mL (≈ 2.8 µM), an MIC ([3]; Enterococcus faecalis 5, Van B) of 2 µg/mL (≈ 5.6 µM) and an IC90 ([3]; Enterococcus faecalis 6, VanB) of 0.6 µg/mL (≈ 1.68 µM). The MIC ([3]; Enterococcus faecalis 6, VanB) was 1 µg/mL (≈ 2.8 µM), the IC90 ([3]; Enterococcus faecalis 7, VanA) was 0.6 µg/mL (≈ 1.68 µM) and the MIC ([3]; Enterococcus faecalis 7, VanA) was 1 µg/mL (≈ 2.8 µM). It also gave an IC90 ([3]; Enterococcus faecalis 8, HLAR) of 0.6 µg/mL (≈ 1.68 µM), an MIC ([3]; Enterococcus faecalis 8, HLAR) of 1 µg/mL (≈ 2.8 µM) and an IC90 ([3]; Enterococcus faecalis 9, HLAR) of 0.6 µg/mL (≈ 1.68 µM). It also gave an MIC ([3]; Enterococcus faecalis 9, HLAR) of 1 µg/mL (≈ 2.8 µM), an IC90 [3, 6] of 0.6 µg/mL (≈ 1.68 µM) and an MIC [3, 6] of 1 µg/mL (≈ 2.8 µM). The MIC [4] was 3 µg/mL (≈ 8.41 µM), the “IC90 (mean)” value (Streptococci) was 0.5 µg/mL (≈ 1.4 µM) and the “MIC (mean)” value (Streptococci) was 1 µg/mL (≈ 2.8 µM). It also gave an MIC range (Streptococci) of 0.5 to 2 µg/mL.
